# Test results from patent US9428504B2, “7-hydroxy-spiropipiperidine indolinyl antagonists of P2Y1 receptor” (BRISTOL-MYERS SQUIBB COMPANY, priority 2012, dated 2016).
# Key:
# [1] = system: human platelet rich plasma (PRP); assay: ADP induced platelet aggregation assay; conditions: Homo sapiens, Platelet, read-out: PA IC50 (μM) @ 10 μM ADP, platelet aggregation induced by 10 μM ADP, human PRP
# Description: The ability of P2Y1 antagonists covered in the present invention to inhibit platelet aggregation induced by 10 μM ADP was tested using human platelet rich plasma (PRP) as described in Platelet Protocols: Research and Clinical Laboratory Procedures (White, M. M. et al., Academic Press (1999)). Human blood was collected in 30 μM (final concentration in blood) argatroban (GSK) as the anticoagulant at a ratio of 1 ml per 9 ml of blood. The PRP was isolated by centrifugation at 170 g for 12 minutes. The platelet poor plasma (PPP) was used as the blank for optical aggregometry. Compounds of the present invention in DMSO solution was preincubated with 250 μl PRP at 37° C. for 1 minute with stirring speed of 1000 rpm. Aggregation was initiated by addition of 2.5 μl of 1 mM ADP (Chrono-log, Havertown, Pa.) for a final ADP concentration of 10 μM. Platelet aggregation was monitored using Optical Aggregometer (Chrono-log, Havertown, Pa.) and the area under the curve (AUC) at 5 minute was measured. IC50 was calculated using vehicle control as 0% inhibition.
# [2] = molecular target: cloned human P2Y1 receptors (Homo sapiens (Human), UniProt P47900); assay: Binding Assay B: Scintillation Proximity Assay (SPA) for P2Y1 binding; conditions: SPA, [33P] 2MeS-ADP displacement; read-out: P2Y1 Ki (nM) using binding assay B
# Description: A SPA membrane binding assay was used to identify inhibitors of [^33P] […] Binding reactions were performed in 384-well OptiPlates (PerkinElmer Life Sciences, Cat #6007299) in a volume of 50 μL containing ˜15 fmol of P2Y1 receptor (1.7 μg of total protein), 0.3 nM [^33P] […] Reactions were allowed to proceed to completion at room temperature for 1 hour followed by centrifugation of the plate for 5 min. About 40 μL of the aqueous solution was aspirated. Plates were sealed and the [^33P]
# cloned human P2Y1 receptors, sequence (P47900 whole entry): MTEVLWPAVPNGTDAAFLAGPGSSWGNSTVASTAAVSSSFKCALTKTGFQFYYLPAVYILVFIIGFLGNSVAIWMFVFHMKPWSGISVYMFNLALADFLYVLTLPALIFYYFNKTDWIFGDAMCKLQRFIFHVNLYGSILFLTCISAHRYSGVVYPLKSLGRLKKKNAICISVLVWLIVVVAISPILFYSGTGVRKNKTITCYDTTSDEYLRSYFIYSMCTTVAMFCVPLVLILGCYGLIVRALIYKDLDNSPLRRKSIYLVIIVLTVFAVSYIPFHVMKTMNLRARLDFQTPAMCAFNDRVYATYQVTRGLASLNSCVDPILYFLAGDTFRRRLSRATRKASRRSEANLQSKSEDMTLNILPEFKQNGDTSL
Compound,IC50 [1],Ki [2]
"CC(C)(C)CN1CCC2(CC1)CN(c1ccccc1NC(=O)Nc1ccc(C(C)(C)C)cc1)c1c(O)cccc12 [Example 5, 1-(4-tert-Butylphenyl)-3-(2-(7-hydroxy-1′-neopentylspiro[indoline-3,4′-piperidine]-1-yl)phenyl)urea]",0.4 µM,8.3 nM
"CC(C)(C)CN1CCC2(CC1)CN(c1ccccc1NC(=O)Nc1ccc(OC(F)(F)F)cc1)c1c(O)ccc(F)c12 [Example 6, 1-(2-(4-Fluoro-7-hydroxy-1′-neopentylspiro[indoline-3,4′-piperidine]-1-yl)phenyl)-3-(4-(trifluoromethoxy)phenyl)urea]",0.9 µM,4.4 nM
"CC(C)(C)CN1CCC2(CC1)CN(c1ccccc1NC(=O)Nc1ccc(C(C)(C)C)cc1)c1c(O)ccc(F)c12 [Example 7, 1-(4-tert-Butylphenyl)-3-(2-(4-fluoro-7-hydroxy-1′-neopentylspiro[indoline-3,4′-piperidine]-1-yl)phenyl)urea]",0.6 µM,4 nM
"CC(C)(C)CN1CCC2(CC1)CN(c1ccccc1NC(=O)Nc1ccc(OC(F)(F)F)cc1)c1c(O)ccc(C#N)c12 [Example 8, 1-(2-(4-Cyano-7-hydroxy-1′-neopentylspiro[indoline-3,4′-piperidine]-1-yl)phenyl)-3-(4-(trifluoromethoxy)phenyl)urea]",1.1 µM,5.7 nM
"CC(C)(C)CN1CCC2(CC1)CN(c1ccccc1NC(=O)Nc1ccc(C(C)(C)C)cc1)c1c(O)cc(F)c(F)c12 [Example 9, 1-(4-tert-Butylphenyl)-3-(2-(4,5-difluoro-7-hydroxy-1′-neopentylspiro [indoline-3,4′-piperidine]-1-yl)phenyl)urea]",0.9 µM,10.5 nM
"CC(C)(C)CN1CCC2(CC1)CN(c1ccccc1NC(=O)Nc1ccc(OC(F)(F)F)cc1)c1c(O)ccc(C(F)(F)F)c12 [Example 10, 1-(2-(7-Hydroxy-1′-neopentyl-4-(trifluoromethyl)spiro[indoline-3,4′-piperidine]-1-yl)phenyl)-3-(4-(trifluoromethoxy)phenyl)urea]",0.1 µM,4.5 nM
"CC(C)(C)CN1CCC2(CC1)CN(c1ccccc1NC(=O)Nc1ccc(C(C)(C)C)cc1)c1c(O)ccc(C(F)(F)F)c12 [Example 11, 1-(4-tert-Butylphenyl)-3-(2-(7-hydroxy-1′-neopentyl-4-(trifluoromethyl)spiro[indoline-3,4′-piperidine]-1-yl)phenyl)urea]",0.1 µM,7.9 nM
"CC(C)(C)CN1CCC2(CC1)CN(c1ncccc1NC(=O)Nc1ccc(OC(F)(F)F)cc1)c1c(O)ccc(C(F)(F)F)c12 [Example 12, 1-(2-(7-Hydroxy-1′-neopentyl-4-(trifluoromethyl)spiro[indoline-3,4′-piperidine]-1-yl)pyridin-3-yl)-3-(4-(trifluoromethoxy)phenyl)urea]",1.4 µM,5.6 nM
"CC(C)(C)CN1CCC2(CC1)CN(c1ccccc1NC(=O)Nc1ccc(OC(F)(F)F)cc1)c1c2ccc(F)c1O [Example 14, 1-(2-(6-Fluoro-7-hydroxy-1′-neopentylspiro[indoline-3,4′-piperidine]-1-yl)phenyl)-3-(4-(trifluoromethoxy)phenyl)urea]",2.1 µM,12.8 nM
"CC(C)(C)CN1CCC2(CC1)CN(c1ccccc1NC(=O)Nc1ccc(F)c(F)c1)c1c(O)ccc(C(F)(F)F)c12 [Example 15, 1-(3,4-Difluorophenyl)-3-(2-(7-hydroxy-1′-neopentyl-4-(trifluoromethyl)spiro[indoline-3,4′-piperidine]-1-yl)phenyl)urea]",0.5 µM,5.1 nM
"CCSc1nsc(NC(=O)Nc2ccccc2N2CC3(CCN(CC(C)(C)C)CC3)c3c(C(F)(F)F)ccc(O)c32)n1 [Example 16, 1-(3-(Ethylthio)-1,2,4-thiadiazol-5-yl)-3-(2-(7-hydroxy-1′-neopentyl-4-(trifluoromethyl)spiro[indoline-3,4′-piperidine]-1-yl)phenyl)urea]",0.3 µM,8.1 nM
